Data reported in PubChem BioAssay (NCI).
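Step 1: Grow cells in 96-well plates. Step 2: Expose to compound for 48 hours at 5 concentrations. Step 3: Interpolate endpoints linearly; if unreached, use highest concentration. TGI: concentration producing complete growth inhibition.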

These molecules were tested on SK-MEL-2 melanoma (assay: NCI anticancer screen, dose series, 48 h).
`COC(=O)Cc1cc(O)c(C/C=C(\C)CC/C=C(\C)C(O)C(=O)C=C(C)C)cc1O` (stereo not drawn) gave a TGI of 48.6 µM.
Work on `COc1ccc(/C=C(/C(=O)c2ccc(Cl)cc2)N2C=CC=CC2=C(C#N)C#N)cc1OC` yielded a TGI of 29.7 µM.
Molecule `Nc1nc(Cl)c(N)c(NC23CC4CC(CC(C4)C2)C3)n1` has a TGI of 1.16 µM.

Each molecule was assayed on SK-MEL-28 melanoma (assay: NCI anticancer screen, dose series, 48 h).
For `CCOC(=O)C1(Cc2ccc3c(c2)CCC3)Cc2cc3c(cc2C1)CCC3`, the TGI was over 100 µM.
`C=CCNC1=C2C[C@@H](C)C[C@@H](OC)[C@H](OC(=O)CCCCN)[C@H](C)/C=C(\C)[C@@H](OC(N)=O)[C@H](OC)/C=C\C=C(/C)C(=O)NC(=CC1=O)C2=O` showed a TGI of 36.9 µM.
For `C[C@@H]1C[C@H]2[C@@H]3CCC4=CC(=O)C=C[C@]4(C)[C@@]3(Cl)[C@@H](Cl)C[C@]2(C)[C@@]1(O)C(=O)COP(=O)(O)O`, the TGI was over 100 µM.
Work on `O=Cc1cc2c(cc1-c1c(C=O)ccc3c1OCO3)OCO2` yielded a TGI of over 10 µM.
For `COc1ccc(/C=C(/C(=O)c2ccc(Cl)cc2)N2C=CC=CC2=C(C#N)C#N)cc1OC`, the TGI was 11.5 µM.
`Nc1nc(Cl)c(N)c(NC23CC4CC(CC(C4)C2)C3)n1` showed a TGI of 3.6 µM.

These molecules were tested on SK-MEL-5 melanoma (assay: NCI anticancer screen, dose series, 48 h).
In the case of `C=CCNC1=C2C[C@@H](C)C[C@@H](OC)[C@H](OC(=O)CCCCN)[C@H](C)/C=C(\C)[C@@H](OC(N)=O)[C@H](OC)/C=C\C=C(/C)C(=O)NC(=CC1=O)C2=O`, the TGI is reported as 25.5 µM.
Molecule `C[C@@H]1C[C@H]2[C@@H]3CCC4=CC(=O)C=C[C@]4(C)[C@@]3(Cl)[C@@H](Cl)C[C@]2(C)[C@@]1(O)C(=O)COP(=O)(O)O` has a TGI of over 100 µM.
Molecule `O=Cc1cc2c(cc1-c1c(C=O)ccc3c1OCO3)OCO2` has a TGI of over 10 µM.
Molecule `COC(=O)Cc1cc(O)c(C/C=C(\C)CC/C=C(\C)C(O)C(=O)C=C(C)C)cc1O` (stereo not drawn) has a TGI of 40.4 µM.
`COc1ccc(/C=C(/C(=O)c2ccc(Cl)cc2)N2C=CC=CC2=C(C#N)C#N)cc1OC` gave a TGI of 22.9 µM.
With `Nc1nc(Cl)c(N)c(NC23CC4CC(CC(C4)C2)C3)n1` the TGI was 3.82 µM.

The molecules below were run on SK-OV-3 ovarian (assay: NCI anticancer screen, dose series, 48 h).
`CCOC(=O)C1(Cc2ccc3c(c2)CCC3)Cc2cc3c(cc2C1)CCC3` was tested, and the TGI was 88.2 µM.
With `C=CCNC1=C2C[C@@H](C)C[C@@H](OC)[C@H](OC(=O)CCCCN)[C@H](C)/C=C(\C)[C@@H](OC(N)=O)[C@H](OC)/C=C\C=C(/C)C(=O)NC(=CC1=O)C2=O` the TGI was 19.9 µM.
In the case of `C[C@@H]1C[C@H]2[C@@H]3CCC4=CC(=O)C=C[C@]4(C)[C@@]3(Cl)[C@@H](Cl)C[C@]2(C)[C@@]1(O)C(=O)COP(=O)(O)O`, the TGI is reported as over 100 µM.
In the case of `O=Cc1cc2c(cc1-c1c(C=O)ccc3c1OCO3)OCO2`, the TGI is reported as over 10 µM.
Work on `COC(=O)Cc1cc(O)c(C/C=C(\C)CC/C=C(\C)C(O)C(=O)C=C(C)C)cc1O` (stereo not drawn) yielded a TGI of 78.8 µM.
`COc1ccc(/C=C(/C(=O)c2ccc(Cl)cc2)N2C=CC=CC2=C(C#N)C#N)cc1OC` gave a TGI of over 82.1 µM.
For `Nc1nc(Cl)c(N)c(NC23CC4CC(CC(C4)C2)C3)n1`, the TGI was 17.4 µM.

The molecules below were run on SN12C renal (assay: NCI anticancer screen, dose series, 48 h).
With `CCOC(=O)C1(Cc2ccc3c(c2)CCC3)Cc2cc3c(cc2C1)CCC3` the TGI was over 100 µM.
For `C=CCNC1=C2C[C@@H](C)C[C@@H](OC)[C@H](OC(=O)CCCCN)[C@H](C)/C=C(\C)[C@@H](OC(N)=O)[C@H](OC)/C=C\C=C(/C)C(=O)NC(=CC1=O)C2=O`, the TGI was 27.1 µM.
`C[C@@H]1C[C@H]2[C@@H]3CCC4=CC(=O)C=C[C@]4(C)[C@@]3(Cl)[C@@H](Cl)C[C@]2(C)[C@@]1(O)C(=O)COP(=O)(O)O` showed a TGI of 33.1 µM.
For `O=Cc1cc2c(cc1-c1c(C=O)ccc3c1OCO3)OCO2`, the TGI was over 10 µM.
With `COC(=O)Cc1cc(O)c(C/C=C(\C)CC/C=C(\C)C(O)C(=O)C=C(C)C)cc1O` (stereo not drawn) the TGI was 58 µM.
Work on `COc1ccc(/C=C(/C(=O)c2ccc(Cl)cc2)N2C=CC=CC2=C(C#N)C#N)cc1OC` yielded a TGI of 47.7 µM.
For `Nc1nc(Cl)c(N)c(NC23CC4CC(CC(C4)C2)C3)n1`, the TGI was 3.32 µM.

The molecules below were run on SNB-19 CNS (assay: NCI anticancer screen, dose series, 48 h).
`CCOC(=O)C1(Cc2ccc3c(c2)CCC3)Cc2cc3c(cc2C1)CCC3` showed a TGI of over 100 µM.
`C=CCNC1=C2C[C@@H](C)C[C@@H](OC)[C@H](OC(=O)CCCCN)[C@H](C)/C=C(\C)[C@@H](OC(N)=O)[C@H](OC)/C=C\C=C(/C)C(=O)NC(=CC1=O)C2=O` gave a TGI of 23.8 µM.
For `C[C@@H]1C[C@H]2[C@@H]3CCC4=CC(=O)C=C[C@]4(C)[C@@]3(Cl)[C@@H](Cl)C[C@]2(C)[C@@]1(O)C(=O)COP(=O)(O)O`, the TGI was over 100 µM.
For `O=Cc1cc2c(cc1-c1c(C=O)ccc3c1OCO3)OCO2`, the TGI was over 10 µM.
In the case of `COC(=O)Cc1cc(O)c(C/C=C(\C)CC/C=C(\C)C(O)C(=O)C=C(C)C)cc1O` (stereo not drawn), the TGI is reported as 86 µM.
Work on `COc1ccc(/C=C(/C(=O)c2ccc(Cl)cc2)N2C=CC=CC2=C(C#N)C#N)cc1OC` yielded a TGI of 32.1 µM.
`Nc1nc(Cl)c(N)c(NC23CC4CC(CC(C4)C2)C3)n1` showed a TGI of 3.42 µM.

The molecules below were run on SNB-75 CNS (assay: NCI anticancer screen, dose series, 48 h).
Molecule `CCOC(=O)C1(Cc2ccc3c(c2)CCC3)Cc2cc3c(cc2C1)CCC3` has a TGI of over 100 µM.
`C=CCNC1=C2C[C@@H](C)C[C@@H](OC)[C@H](OC(=O)CCCCN)[C@H](C)/C=C(\C)[C@@H](OC(N)=O)[C@H](OC)/C=C\C=C(/C)C(=O)NC(=CC1=O)C2=O` was tested, and the TGI was 15.2 µM.
In the case of `C[C@@H]1C[C@H]2[C@@H]3CCC4=CC(=O)C=C[C@]4(C)[C@@]3(Cl)[C@@H](Cl)C[C@]2(C)[C@@]1(O)C(=O)COP(=O)(O)O`, the TGI is reported as over 100 µM.
Work on `O=Cc1cc2c(cc1-c1c(C=O)ccc3c1OCO3)OCO2` yielded a TGI of over 10 µM.
For `COC(=O)Cc1cc(O)c(C/C=C(\C)CC/C=C(\C)C(O)C(=O)C=C(C)C)cc1O` (stereo not drawn), the TGI was 56.4 µM.
For `COc1ccc(/C=C(/C(=O)c2ccc(Cl)cc2)N2C=CC=CC2=C(C#N)C#N)cc1OC`, the TGI was 20.3 µM.
With `Nc1nc(Cl)c(N)c(NC23CC4CC(CC(C4)C2)C3)n1` the TGI was 4.91 µM.

The molecules below were run on SR leukemia (assay: NCI anticancer screen, dose series, 48 h).
With `CCOC(=O)C1(Cc2ccc3c(c2)CCC3)Cc2cc3c(cc2C1)CCC3` the TGI was over 100 µM.
`C=CCNC1=C2C[C@@H](C)C[C@@H](OC)[C@H](OC(=O)CCCCN)[C@H](C)/C=C(\C)[C@@H](OC(N)=O)[C@H](OC)/C=C\C=C(/C)C(=O)NC(=CC1=O)C2=O` showed a TGI of over 100 µM.
`C[C@@H]1C[C@H]2[C@@H]3CCC4=CC(=O)C=C[C@]4(C)[C@@]3(Cl)[C@@H](Cl)C[C@]2(C)[C@@]1(O)C(=O)COP(=O)(O)O` gave a TGI of over 100 µM.
Work on `O=Cc1cc2c(cc1-c1c(C=O)ccc3c1OCO3)OCO2` yielded a TGI of over 10 µM.
`COC(=O)Cc1cc(O)c(C/C=C(\C)CC/C=C(\C)C(O)C(=O)C=C(C)C)cc1O` (stereo not drawn) gave a TGI of 41.6 µM.
